Experimental data from US20090291964A1, “Potentiators of Antibacterial Activity” (priority 2003, published 2009).
Read-outs that look alike come from different tables or passages of the source.

Tests used:
Assay type in all cases: cell-based
[1] = system: E. faecalis clinical isolates; experiment: MIC90 studies: fluoroquinolone susceptibility of clinical isolate panel with EPI; details: Enterococcus faecalis, read-out: MIC, No EPI
Procedure: (§1) Susceptibility studies with large panels of resistant clinical isolates were performed at Focus Technologies, Herndon, Va. according to NCCLS protocols (National Committee for Clinical Laboratory Standards, supra).
(§2) To be useful in combination therapy, an EPI needs to substantially reduce the MIC of an antibiotic to within the range of clinical susceptibility. Because many different resistance mechanisms are often present in clinical isolates, including the likelihood of multiple target-based mutations in addition to efflux mutations, the barrier to antibiotic efficacy is much greater. […] Oxacillin and vancomycin MICs were also determined to identify which isolates were methicillin-resistant (S. aureus) and vancomycin-resistant (E. faecalis).

[2] = system: S. aureus clinical isolates; experiment: as above; details: Staphylococcus aureus
Procedure: as §1, §2

[3] = system: S. aureus SA-K2068 (non-NorA multidrug efflux pump overproducing); experiment: microbe, parasite or virus in culture; details: Staphylococcus aureus
From the text: (§3) A variety of strains may be used in these experiments, including, but not limited to, S. aureus ATCC 29213, E. faecalis ATCC 29212, and S. pneumoniae, S. aureus strains SA-1199, SA-1199B, SA-8325-4, and SA-K2068. S. aureus ATCC 29213, E. faecalis ATCC 29212, and S. pneumoniae ATCC 10015 were obtained from the American Type Culture Collection (Manassas, Va.). S. aureus strains SA-1199 (clinical isolate, susceptible), SA-1199B (SA-1199, NorA overproducing, also has A116E GrlA mutation), SA-8325-4 (NCTC 8325 cured of prophages), SA-K2068 (SA-8325-4, non-NorA multidrug efflux pump overproducing mutation) were obtained from Glenn Kaatz (Kaatz et al., “Identification and characterization of a novel efflux-related multidrug resistance phenotype in Staphylococcus aureus”, J. Antimicrob. Chemother. 50:833-838 (2002); 1993; Kaatz et al., “Phenothiazines and thioxanthenes inhibit multidrug efflux pump activity in Staphylococcus aureus”, Antimicrob. Agents Chemother. 47:719-726, Kaatz et al., “Efflux-mediated fluoroquinolone resistance in Staphylococcus aureus. Antimicrob. Agents Chemother.”, 37:1086-1094, 1993)).
(§4) 3% sterile laked horse blood (Quad Five, Ryegate, Mont.) was added to assays for E. faecalis and S. Pneumoniae. A final concentration of 1% DMSO was present in all assays.
(§5) Recent more hydrophobic fluoroquinolones such as gatifloxacin and moxifloxacin are less well recognized by NorA; however, recently one other pump in S. aureus has been described which also recognizes hydrophobic fluoroquinolones (Kaatz et al. 2002, supra). To investigate the potential of A-106 and C-9 to block the efflux of several fluoroquinolones in cells with constituitively over-expressed efflux pumps, we used S. aureus strains SA-1199B and K2068 (Table 3). […] Kaatz et al., “Phenothiazines and thioxanthenes inhibit multidrug efflux pump activity in Staphylococcus aureus”, Antimicrob. Agents Chemother. 47:719-726 (2003).

S. aureus ATCC 29213 [4] = experiment: MIC by NCCLS microdilution, antibacterial agents with and without EPI; details: for MIC: Staphylococcus aureus; for MIC in the presence of 4X MEC of EPI, VX-710: VX-710 100 μg/ml; for MIC in the presence of 4X MEC of EPI, VX-853: VX-853 6.25 μg/ml; for MIC in the presence of 4X MEC of EPI, reserpine: reserpine 25 μg/ml
Procedure: 3% sterile laked horse blood (Quad Five, Ryegate, Mont.) was added to assays for E. faecalis and S. Pneumoniae. A final concentration of 1% DMSO was present in all assays. […]
A-106 and C-9 were tested at their respective MECs in combination with a variety of different classes of antibiotics against S. aureus ATCC 29213 (Table 2).

[5] = system: S. aureus SA-1199 (clinical isolate, susceptible); experiment: MIC of fluoroquinolones with and without EPI; details: Staphylococcus aureus, read-out: MIC of antibacterial agent, EPI none
From the text: as §3, §4

S. aureus SA-8325-4 = experiment: MIC of fluoroquinolones with and without EPI; details: Staphylococcus aureus, SA83254, read-out: MIC of antibacterial agent, EPI none
From the text: as §3, §4

[6] = system: S. aureus SA-1199B (NorA overproducing); experiment: MIC of fluoroquinolones with and without EPI; details: Staphylococcus aureus
From the text: as §3, §4, §5

E. faecalis ATCC 29212 = experiment: MIC by NCCLS microdilution, EtBr/EPI with and without EPI; details: Enterococcus faecalis, ATCC29212, read-out: MIC of EtBr without EPI
Procedure: as §4
(§6) EtBr is a general substrate for many different efflux pumps in bacteria. Markham et al., “Multiple Novel Inhibitors of the NorA Multidrug Transporter of Staphylococcus aureus”, Antimicrob. Agents Chemother. 43:2404-2408 (1999). Since EtBr is a non-specific DNA intercalator, the only known mechanism of resistance to EtBr is via efflux. Markham et al., “Multiple Novel Inhibitors of the NorA Multidrug Transporter of Staphylococcus aureus”, Antimicrob. Agents Chemother. 43:2404-2408 (1999).

S. pneumoniae ATCC 10015 = experiment: as above; details: Streptococcus pneumoniae, ATCC10015, read-out: MIC of EtBr without EPI
Procedure: as §4, §6

S. aureus ATCC 29213 [7] = experiment: Minimal effective concentration (MEC) of EPI for EtBr; details: S. aureus ATCC 29213; lowest amount of EPI which produces the maximum effect on the MIC of ethidium bromide
Procedure: The MEC was determined as the minimal concentration of EPI that produced the maximal reduction in substrate MIC.
The minimum effective concentration (MEC) for inhibition of EtBr efflux was determined in S. aureus, E. faecalis and S. pneumoniae for A-106 and C-9; reserpine was used as a comparator (Table 1).

[8] = read-out: MIC of antibacterial agent, EPI none
[9] = ATCC29213, antibacterial agent alone, read-out: MIC, No EPI
[10] = ATCC29213, read-out: MIC of antibacterial agent, EPI none, S. aureus ATCC 29213, no EPI
[11] = ATCC29213, read-out: MIC, No EPI, antibacterial agent alone
[12] = S. aureus ATCC 29213, EPIs used at the MEC, except VX-710 at 100 μg/ml
[13] = read-out: MIC of Gatifloxacin without EPI

## CCn1cc(C(=O)O)c(=O)c2cc(F)c(N3CCNCC3)cc21 [norfloxacin, reference compound]
[1]; E. faecalis clinical isolate 1
  MIC: 4 µg/mL
[1]; E. faecalis clinical isolate 2
  MIC: 4 µg/mL
[1]; E. faecalis clinical isolate 3
  MIC: 128 µg/mL
[1]; E. faecalis clinical isolate 4
  MIC: 128 µg/mL
[1]; E. faecalis clinical isolate 5
  MIC: 64 µg/mL
[1]; E. faecalis clinical isolate 6
  MIC: 2 µg/mL
[1]; E. faecalis clinical isolate 7
  MIC: 2 µg/mL
[1]; E. faecalis clinical isolate 8
  MIC: 128 µg/mL
[1]; E. faecalis clinical isolate 9
  MIC: 4 µg/mL
[1]; E. faecalis clinical isolate 10
  MIC: 64 µg/mL
[1]; E. faecalis clinical isolate 11
  MIC: 128 µg/mL
[1]; E. faecalis clinical isolate 12
  MIC: 2 µg/mL
[1]; E. faecalis clinical isolate 13
  MIC: 2 µg/mL
[1]; E. faecalis clinical isolate 14
  MIC: 4 µg/mL
[1]; E. faecalis clinical isolate 15
  MIC: 4 µg/mL
[1]; E. faecalis clinical isolate 16
  MIC: 4 µg/mL
[1]; E. faecalis clinical isolate 17
  MIC: 4 µg/mL
[1]; E. faecalis clinical isolate 18
  MIC: 128 µg/mL
[1]; E. faecalis clinical isolate 19
  MIC: 4 µg/mL
[1]; E. faecalis clinical isolate 20
  MIC: 4 µg/mL
[1]; E. faecalis clinical isolate 21
  MIC: 2 µg/mL
[1]; E. faecalis clinical isolate 22
  MIC: 128 µg/mL
[1]; E. faecalis clinical isolate 23
  MIC: 64 µg/mL
[1]; E. faecalis clinical isolate 24
  MIC: > 256 µg/mL
[1]; E. faecalis clinical isolate 25
  MIC: 128 µg/mL
[1]; E. faecalis clinical isolate 26
  MIC: > 256 µg/mL
[2]; S. aureus clinical isolate 1
  MIC: 16 µg/mL
[2]; S. aureus clinical isolate 2
  MIC: 1 µg/mL
[2]; S. aureus clinical isolate 3
  MIC: 1 µg/mL
[2]; S. aureus clinical isolate 4
  MIC: 256 µg/mL
[2]; S. aureus clinical isolate 5
  MIC: 1 µg/mL
[2]; S. aureus clinical isolate 6
  MIC: 32 µg/mL
[2]; S. aureus clinical isolate 7
  MIC: 2 µg/mL
[2]; S. aureus clinical isolate 8
  MIC: 4 µg/mL
[2]; S. aureus clinical isolate 9
  MIC: 1 µg/mL
[2]; S. aureus clinical isolate 10
  MIC: 64 µg/mL
[2]; S. aureus clinical isolate 11
  MIC: 64 µg/mL
[2]; S. aureus clinical isolate 12
  MIC: 1 µg/mL
[2]; S. aureus clinical isolate 13
  MIC: 256 µg/mL
[2]; S. aureus clinical isolate 14
  MIC: 256 µg/mL
[2]; S. aureus clinical isolate 15
  MIC: 256 µg/mL
[3]; [8]
  MIC: 8 µg/mL
S. aureus ATCC 29213 [4]; [9]
  MIC: 1 µg/mL
S. aureus ATCC 29213 [4]; [10]
  MIC: 0.5 µg/mL
S. aureus ATCC 29213 [4]
  MIC in the presence of 4X MEC of EPI, VX-710: 0.25 µg/mL
  MIC in the presence of 4X MEC of EPI, VX-853: 0.5 µg/mL
  MIC in the presence of 4X MEC of EPI, reserpine: 0.5 µg/mL
[5]
  MIC: 0.5 µg/mL
S. aureus SA-8325-4
  MIC: 1 µg/mL

## CC[n+]1c(-c2ccccc2)c2cc(N)ccc2c2ccc(N)cc21 [EtBr, Ethidium bromide]
[6]; [8]
  MIC: 25 µg/mL
E. faecalis ATCC 29212
  MIC: 6.3 µg/mL
S. pneumoniae ATCC 10015
  MIC: 2 µg/mL
[3]; [8]
  MIC: 12.5 µg/mL
S. aureus ATCC 29213 [4]; S. aureus ATCC 29213
  MIC of EtBr without EPI: 6.2 µg/mL
S. aureus ATCC 29213 [4]; ATCC29213, read-out: MIC of EtBr without EPI, S. aureus ATCC 29213
  MIC: 6.3 µg/mL
S. aureus ATCC 29213 [4]; [10]
  MIC: 6.2 µg/mL
S. aureus ATCC 29213 [4]; [11]
  MIC: 6.2 µg/mL
S. aureus ATCC 29213 [4]
  MIC in the presence of 4X MEC of EPI, VX-710: 0.2 µg/mL
  MIC in the presence of 4X MEC of EPI, VX-853: 1.6 µg/mL
  MIC in the presence of 4X MEC of EPI, reserpine: 1.6 µg/mL
[5]
  MIC: 6.2 µg/mL
S. aureus SA-8325-4
  MIC: 3.1 µg/mL

## C[C@H]1COc2c(N3CCN(C)CC3)c(F)cc3c(=O)c(C(=O)O)cn1c23 [levofloxacin]
S. aureus ATCC 29213 [4]; [9]
  MIC: 0.25 µg/mL
S. aureus ATCC 29213 [4]
  MIC in the presence of 4X MEC of EPI, VX-710: 0.125 µg/mL
  MIC in the presence of 4X MEC of EPI, VX-853: 0.125 µg/mL
  MIC in the presence of 4X MEC of EPI, reserpine: 0.125 µg/mL
[5]
  MIC: 0.125 µg/mL
S. aureus SA-8325-4
  MIC: 0.25 µg/mL

## COc1cc(C(=O)C(=O)N(C)C(Cc2ccccc2)C(=O)N(Cc2ccccc2)C(CCc2ccncc2)CCc2ccncc2)cc(OC)c1OC (stereo not drawn) [VRT-013661]
S. aureus ATCC 29213 [7]
  MEC of EPI: 3.1 µg/mL
S. aureus ATCC 29213 [4]; S. aureus ATCC 29213, EPI alone
  MIC of EPI: >100 µg/mL
S. aureus ATCC 29213 [4]; [12]
  Fold-reduction in EtBr MIC: 4
  MIC of EtBr with EPI: 1.6 µg/mL

## COc1c(N2CCNC(C)C2)c(F)cc2c(=O)c(C(=O)O)cn(C3CC3)c12 (stereo not drawn) [gatifloxacin, reference compound]
[6]; [13]
  MIC: 0.5 µg/mL
[6]; [8]
  MIC: 0.5 µg/mL
[3]; [13]
  MIC: 1 µg/mL
[3]; [8]
  MIC: 1 µg/mL
S. aureus ATCC 29213 [4]; ATCC29213, read-out: MIC of Gatifloxacin without EPI, S. aureus ATCC 29213 (Table 4)
  MIC: 0.125 µg/mL
S. aureus ATCC 29213 [4]; [10]
  MIC: 0.063 µg/mL
S. aureus ATCC 29213 [4]; [11]
  MIC: 0.125 µg/mL
S. aureus ATCC 29213 [4]
  MIC in the presence of 4X MEC of EPI, VX-710: 0.125 µg/mL
  MIC in the presence of 4X MEC of EPI, VX-853: 0.125 µg/mL
  MIC in the presence of 4X MEC of EPI, reserpine: 0.125 µg/mL
[5]
  MIC: 0.063 µg/mL
S. aureus SA-8325-4
  MIC: 0.125 µg/mL
